For series [1], the system named is transthyretin (ttr). The experiment in a line: ttr gene expression (qPCR) in exposed zebrafish embryos. The class given is in vivo, zebrafish (Danio rerio). The settings on record: for effect on ttr expression: exposed 48–120 hpf; for EC50: Danio rerio. Background: Quantitative PCR measures a nucleic acid by following its amplification.
Series [2] relates to thyroid receptor α (trα). The experiment in a line: trα gene expression (qPCR) in exposed zebrafish embryos. In kind it is in vivo, zebrafish (Danio rerio). The settings on record: exposed 48–120 hpf.
The conditions of series [3]: listed physicochemical property, source not given; cited from earlier work.
For series [4], the system named is thyroid peroxidase (tpo). Briefly: tpo gene expression (qPCR) in exposed zebrafish embryos. In kind it is in vivo, zebrafish (Danio rerio). The settings on record: for EC50: Danio rerio.
Series [5] concerns iodothyronine deiodinase 2 (dio2). Briefly: dio2 gene expression (qPCR) in exposed zebrafish embryos. In kind it is in vivo, zebrafish (Danio rerio). The settings on record: for EC50: Danio rerio.
In series [6] the test system is tpo - mRNA. The following applies: 48-120 h, ref [32] (supplement list), cited from earlier work.
Series [7] has as its system iodothyronine deiodinase 1 (dio1). The experiment in a line: dio1 gene expression (qPCR) in exposed zebrafish embryos. In kind it is in vivo. The settings on record: Danio rerio; exposed 48–120 hpf; Figure 4; no unit printed for this gene.
Series [8] deals with pax8. The experiment in a line: pax8 gene expression (qPCR) in exposed zebrafish embryos. In kind it is in vivo, zebrafish (Danio rerio). The settings on record: exposed 48–120 hpf.
Series [9] can be described thus: acute toxicity test from 48–120 hpf based on the OECD FET test. The class given is in vivo, zebrafish (Danio rerio). The following applies: in vivo; zebrafish embryos exposed 48–120 hpf. The text has this: Twenty embryos per treatment were exposed to 5 concentrations of compound of interest in a 10× dilution factor from 48–120 hpf, which is the experimental time in which EDCs will be screened posteriorly. Embryos were exposed from 48–120 hpf rather than 0–96 hpf or 0–120 hpf to avoid unspecific toxicity outside of the EDC testing period, which have been chosen on the basis that endocrine pathways, e.g., thyroid metabolism, are not fully functional until 40–55 hpf in zebrafish embryos. Stock solutions of chemicals to be tested were freshly prepared in exposure medium. The highest concentration for each compound was selected according to its water solubility (Table S1). Exposures were performed in glass vessels to assure maximum bioavailability for hydrophobic compounds, and medium was not exchanged during the experiment.

In series [10] the test system is dio2 - mRNA. Also on record: method as in earlier work. The settings on record: 0-120 h, ref [33] (supplement list), cited from earlier work.
The test system of series [11] is cyp19a1b - mRNA. The settings on record: cited from earlier work.
Series [12] concerns cyp19a1b - fluorescence. The settings on record: 0-96 h, cited from earlier work; for LogEC50 (cyp19a1b - fluorescence): log of EC50 in μM.
For series [13], the system named is vtg - blood. The following applies: 21 days (adults), cited from earlier work; for EC50: read-out: EC50 (vtg - blood); for LogEC50 (vtg - blood): log of EC50 in μM.
The test system of series [14] is vtg - blood. The settings on record: cited from earlier work; for LogEC50 (vtg - blood): log of EC50 in μM.
In series [15] the test system is vtg1 - mRNA. The following applies: cited from earlier work; for EC50: * mean of an approximate range, read-out: EC50 (vtg1 - mRNA); for LogEC50 (vtg1 - mRNA): log of EC50 in μM.
For series [16], the system named is vtg - blood. The settings on record: 8 days (adults), cited from earlier work.
Series [17] relates to brain aromatase (cyp19a1b). Briefly: cyp19a1b gene expression (qPCR) in exposed zebrafish embryos. In kind it is in vivo, zebrafish (Danio rerio).
Series [18] concerns cyp19a1b - mRNA. The following applies: 14 days (adults), cited from earlier work.
The test system of series [19] is cyp19a1b - mRNA. The settings on record: cited from earlier work; for LogEC50 (cyp19a1b - mRNA): log of EC50 in μM.
Series [20] deals with vitellogenin 1 (vtg1). Briefly: vtg1 gene expression (qPCR) in exposed zebrafish embryos.
Series [21] concerns aromatase (cyp19a1). The experiment in a line: cyp19a gene expression (qPCR) in exposed zebrafish embryos. The class given is in vivo, zebrafish (Danio rerio). The settings on record: exposed 48–120 hpf; Figure S1.
The test system of series [22] is vtg1 - fluorescence. The settings on record: 21 days (adults), cited from earlier work.
The mark [23] stands for this setting: log of EC50 in μM, 48-120 h, our study.
The mark [24] stands for this setting: exogenous T3, 48–120 hpf, downregulated.
[25] abbreviates: E2 1 µM alone, rescue experiment.

Where two headings read alike, the source gives them in different places.

Consider `Cn1cc[nH]c1=S` [MMI, methimazole], for which the “effect on ttr expression” value in [1] is “None of the other three remaining thyroid markers analyzed were affected”. In addition, in series [2], the “effect on trα expression” value is reported as “None of the other three remaining thyroid markers analyzed were affected”. In addition, the Water solubility in [3] is 277.5 mg/mL. Besides, the EC50 was 397000 nM in series [4] (zebrafish embryos exposed 48–120 hpf, mRNA by qPCR, read-out: EC50 tpo) and 487000 nM in series [6] (main text refs 25, 29). For the same compound, the “LogEC50 (tpo - mRNA)” value is reported as 2.599 in series [4] (setting [23]) and 2.688 in series [6] (log of EC50 in μM). In addition, the “effect on dio2 expression” value in series [5] (exposed 48–120 hpf) is “None of the other three remaining thyroid markers analyzed were affected”.

For `N[C@@H](Cc1cc(I)c(Oc2ccc(O)c(I)c2)c(I)c1)C(=O)O` [T3, 3,3′,5-triiodo-L-thyronine], the EC50 in series [7] was determined as 3.58 nM; in series [1] (read-out: EC50 ttr, exposed 48–120 hpf, Figure 4, downregulated) it was 0.31 nM; in [1] (read-out: EC50 ttr, exposure 0–96 hpf, Figure 1, comparison of exposure windows, 0–96 hpf), 0.49 nM; in series [1] (read-out: EC50 ttr, exposure 48–120 hpf, Figure 1, comparison of exposure windows, 48–120 hpf) it was 0.32 nM; in [1] (read-out: EC50 ttr, zebrafish embryos exposed 48–120 hpf, mRNA by qPCR), 0.3 nM; in [4] (read-out: EC50 tpo, exposed 48–120 hpf, Figure 4, upregulated), 9.93 nM. Further, the EC50 in series [4] (read-out: EC50 tpo, exposure 48–120 hpf, Figure 1, comparison of exposure windows, 48–120 hpf) turned out to be 4.09 nM; in series [4] (read-out: EC50 tpo, zebrafish embryos exposed 48–120 hpf, mRNA by qPCR) it was 10 nM; in series [5] (read-out: EC50 dio2, exposed 48–120 hpf, Figure 4, downregulated) it was 0.28 nM; in series [5] (read-out: EC50 dio2, exposure 0–96 hpf, Figure 1, comparison of exposure windows, 0–96 hpf), 6.81 nM; in series [5] (read-out: EC50 dio2, exposure 48–120 hpf, Figure 1, comparison of exposure windows, 48–120 hpf) it was 1.23 nM; in series [5] (read-out: EC50 dio2, zebrafish embryos exposed 48–120 hpf, mRNA by qPCR), 0.3 nM. For the same compound, the FI ttr in series [1] (setting [24]) is listed as 0.49. Further, in series [8], the “response of pax8” value is recorded as “lack of response”. The “effect on tpo expression, exposure 0–96 hpf” value in [4] (embryos exposed from 0–96 hpf) is reported as “slight decrease”. In series [4] (exogenous T3, 48–120 hpf, upregulated), this compound gave an FI tpo of 4.11. The “FI dio2” value in [5] (setting [24]) is given as 0.26. Further, the LC50 in [9] is 6000 nM.

Consider `CCCCC(O)(Cn1cncn1)c1ccc(Cl)cc1Cl` (stereo not drawn) [HEX, hexaconazole], for which the “effect on ttr expression” value in series [1] is recorded as “remained unaltered”. The “effect on trα expression” value in series [2] is recorded as “remained unaltered”. In addition, the EC50 in [10] (* mean of an approximate range) was around 3980 nM; in series [5] (zebrafish embryos exposed 48–120 hpf, mRNA by qPCR, read-out: EC50 dio2) it was 2220 nM. The entries for the “LogEC50 (dio2 - mRNA)” value in series [10] (log of EC50 in μM) and in [5] (setting [23]) were 0.5999 and 0.3464, respectively. This compound also registered an LC50 in [9] of 23400 nM.

Regarding `C[C@]12CC[C@@H]3c4ccc(O)cc4CC[C@H]3[C@@H]1CC[C@@H]2O` [E2, 17β-estradiol], the “EC50 (cyp19a1b - mRNA), class symbol” value in series [11] (7 days (adults), ref [7] (supplement list: Hinfray 2006)) is “n.e”; in series [11] (21 days (adults), ref [8] (supplement list: Kallivretaki 2006)), “n.e”. The EC50 in series [12] (ref [2] (supplement list: Petersen 2013)) is 3.4 nM; in [12] (ref [3] (supplement list: Brion 2012)), 2.4 nM; in [13] (* mean of an approximate range, ref [16] (supplement list: Parks 1999)) it was around 0.6 nM; in [13] (ref [15] (supplement list: Dammann 2011)) it was 0.09 nM; in [14] (14 days (adults), ref [14] (supplement list: Brian 2005)) it was 0.09 nM; in [14] (24 days (adults), ref [13] (supplement list: Van den Belt 2004)), 0.6 nM. Also, the EC50 in series [15] (0-120 h, ref [11] (supplement list: Muncke 2006)) was around 30 nM; in [15] (0-168 h, ref [10] (supplement list: Chen 2018)), around 180 nM; in series [16] (ref [12] (supplement list: Rose 2002)), 0.2 nM; in [17] (Danio rerio, zebrafish embryos exposed 48–120 hpf, mRNA by qPCR), 90 nM; in series [18] (effects only detected in males, ref [9] (supplement list: Halm 2002)) it was 0.4 nM; in series [19] (0-72 h, * mean of an approximate range, ref [4] (supplement list: Lassiter 2007)), around 10 nM. Moreover, the EC50 in series [19] (0-96 h, ref [3] (supplement list: Brion 2012)) was 4.1 nM; in series [19] (2-48 h, * mean of an approximate range, ref [6] (supplement list: Kishida 2001)) it was around 10 nM; in [19] (72-96 h, * mean of an approximate range, ref [5] (supplement list: Chung 2011)), around 5.5 nM; in series [20] (Danio rerio, read-out: EC50 vtg1) it was 190 nM; in [22] (ref [17] (supplement list: Zeng 2005)) it was around 0.55 nM. Further, the “LogEC50 (cyp19a1b - fluorescence)” value in series [12] (ref [2] (supplement list)) is recorded as -2.469; in series [12] (ref [3] (supplement list)), -2.62. Further, the “LogEC50 (vtg - blood)” value is reported as -4.046 in series [13] (ref [15] (supplement list)); -3.222 in series [13] (ref [16] (supplement list)); -4.046 in series [14] (14 days (adults), ref [14] (supplement list)); -3.222 in series [14] (24 days (adults), ref [13] (supplement list)); -3.699 in series [16] (log of EC50 in μM, ref [12] (supplement list)). Also, the “LogEC50 (vtg1 - mRNA)” value was -1.523 in series [15] (0-120 h, ref [11] (supplement list)) and -0.757 in series [15] (0-168 h, ref [10] (supplement list)). The “FI cyp19a1b, single exposure” value in series [17] (setting [25]) came to 64.54. Further, in series [17] (setting [23]), the “LogEC50 (cyp19a1b mRNA)” value is -1.046. For the same compound, the “LogEC50 (cyp19a1b - mRNA)” value was -3.398 in [18] (log of EC50 in μM, males, ref [9] (supplement list)); -2 in series [19] (0-72 h, ref [4] (supplement list)); -2.387 in [19] (0-96 h, ref [3] (supplement list)); -2 in [19] (2-48 h, ref [6] (supplement list)); -2.26 in [19] (72-96 h, ref [5] (supplement list)). Besides, the “FI vtg1, single exposure” value in [20] (setting [25]) is 394.39. For the same compound, the “LogEC50 (vtg1 mRNA)” value in series [20] (setting [23]) is recorded as -0.7212. In addition, the “response of cyp19a” value in series [21] is on record as “no response”. Further, the “LogEC50 (vtg1 - fluorescence)” value in series [22] (log of EC50 in μM, ref [17] (supplement list)) is listed as -3.26.

Usually EC50 stands for the concentration giving half of the maximal effect. By LC50 is commonly meant the concentration that kills 50% of the test population. Lower therefore signals a more lethal substance.

Values taken from article PMC6479714, “Multiplex Analysis Platform for Endocrine Disruption Prediction Using Zebrafish” (International Journal of Molecular Sciences, 2019).
